# Earlier results, collected in patent publication US20260048008A1, “ORGANOGELS FOR SUSTAINED DRUG DELIVERY, METHODS OF PREPARATION AND USE THEREOF” (OCULAR THERAPEUTIX, INC., priority 2022, published 2026).
structure (smiles),measurement,value
CC(C)OC(=O)CCC/C=C\C[C@@H]1[C@@H](/C=C/[C@@H](O)COc2cccc(C(F)(F)F)c2)[C@H](O)C[C@@H]1O [Travoprost],solubility in water,practically insoluble in water
